Reference: article PMC6149898, “GPCR Modulation of Thieno[2,3-b]pyridine Anti-Proliferative Agents” (Molecules : A Journal of Synthetic Chemistry and Natural …, 2017)

Experiments:
BR:MCF7 = tested on: BR:MCF7; set-up: method as in earlier work; conditions: NCI-60 panel; ref [4],[5],[6],[7]; cited from earlier work
OV:OVCAR-5 = tested on: OV:OVCAR-5; set-up: method as in earlier work; conditions: NCI-60 panel; ref [4],[5],[6],[7]; cited from earlier work
PR:DU-145 = tested on: PR:DU-145; set-up: method as in earlier work; conditions: NCI-60 panel; ref [4],[5],[6],[7]; cited from earlier work
TACR1 = TACR1 (Homo sapiens, UniProt P25103); test: gpcrMAX PathHunter beta-arrestin
UTR2 = UTR2 (Homo sapiens, UniProt Q9UKP6); test: gpcrMAX PathHunter beta-arrestin
CXCR7 = CXCR7 (Homo sapiens, UniProt P25106); test: gpcrMAX PathHunter beta-arrestin
Sequence of CXCR7 (P25106 whole entry): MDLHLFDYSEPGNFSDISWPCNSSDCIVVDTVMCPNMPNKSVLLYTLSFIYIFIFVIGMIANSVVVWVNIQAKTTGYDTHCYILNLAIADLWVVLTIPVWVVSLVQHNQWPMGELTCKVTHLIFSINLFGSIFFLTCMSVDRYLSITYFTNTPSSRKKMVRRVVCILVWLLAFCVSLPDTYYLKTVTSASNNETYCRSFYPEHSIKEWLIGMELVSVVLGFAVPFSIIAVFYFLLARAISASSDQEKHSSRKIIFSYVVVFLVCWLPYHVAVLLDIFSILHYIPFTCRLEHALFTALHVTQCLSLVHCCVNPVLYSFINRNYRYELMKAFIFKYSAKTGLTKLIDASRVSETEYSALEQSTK
RE:A498 = tested on: RE:A498; set-up: method as in earlier work; conditions: NCI-60 panel; ref [4],[5],[6],[7]; cited from earlier work
TBXA2R = TBXA2R (Homo sapiens, UniProt P21731); test: gpcrMAX PathHunter beta-arrestin
Sequence of TBXA2R (P21731 whole entry): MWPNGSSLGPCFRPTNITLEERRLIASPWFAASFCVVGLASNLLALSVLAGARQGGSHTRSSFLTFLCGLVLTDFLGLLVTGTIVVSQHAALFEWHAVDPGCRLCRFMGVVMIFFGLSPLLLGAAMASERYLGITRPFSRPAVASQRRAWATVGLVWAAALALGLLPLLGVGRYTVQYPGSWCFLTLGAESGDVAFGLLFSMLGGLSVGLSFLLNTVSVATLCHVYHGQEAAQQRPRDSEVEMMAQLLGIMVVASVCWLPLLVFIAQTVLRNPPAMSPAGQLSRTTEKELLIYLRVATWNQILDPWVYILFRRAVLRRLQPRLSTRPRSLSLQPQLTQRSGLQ

ADCYAP1R1 = ADCYAP1R1 (Homo sapiens, UniProt P41586); test: gpcrMAX PathHunter beta-arrestin
CO:SW-620 = tested on: CO:SW-620; set-up: method as in earlier work; conditions: NCI-60 panel; ref [4],[5],[6],[7]; cited from earlier work
AGTRL1 = AGTRL1 (Homo sapiens, UniProt P35414); test: gpcrMAX PathHunter beta-arrestin
Sequence of AGTRL1 (P35414 whole entry): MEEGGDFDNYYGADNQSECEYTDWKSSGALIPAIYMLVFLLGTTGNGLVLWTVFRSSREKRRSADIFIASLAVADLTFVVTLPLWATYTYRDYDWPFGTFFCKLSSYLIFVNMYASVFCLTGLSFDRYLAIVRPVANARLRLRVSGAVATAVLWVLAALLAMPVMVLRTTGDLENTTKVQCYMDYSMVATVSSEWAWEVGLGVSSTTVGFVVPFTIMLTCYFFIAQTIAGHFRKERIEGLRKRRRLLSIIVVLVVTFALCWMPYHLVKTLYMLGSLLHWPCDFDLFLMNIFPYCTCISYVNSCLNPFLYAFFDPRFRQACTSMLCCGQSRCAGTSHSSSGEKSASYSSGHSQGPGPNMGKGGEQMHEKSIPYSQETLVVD

GRPR = GRPR (Homo sapiens, UniProt P30550); test: gpcrMAX PathHunter beta-arrestin
Sequence of GRPR (P30550 whole entry): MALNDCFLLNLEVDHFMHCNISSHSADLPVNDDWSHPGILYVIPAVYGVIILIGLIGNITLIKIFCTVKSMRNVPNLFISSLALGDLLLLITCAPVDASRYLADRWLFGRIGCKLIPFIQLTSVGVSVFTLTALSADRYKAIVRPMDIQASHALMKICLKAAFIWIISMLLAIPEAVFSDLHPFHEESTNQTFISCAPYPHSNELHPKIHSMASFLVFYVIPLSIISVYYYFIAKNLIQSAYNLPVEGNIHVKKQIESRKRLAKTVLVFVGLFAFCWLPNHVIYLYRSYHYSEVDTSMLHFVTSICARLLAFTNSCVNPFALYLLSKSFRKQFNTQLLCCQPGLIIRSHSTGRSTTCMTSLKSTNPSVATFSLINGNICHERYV

GLP2R = GLP2R (Homo sapiens, UniProt O95838); test: gpcrMAX PathHunter beta-arrestin
OPRK1 = OPRK1 (Homo sapiens, UniProt P41145); test: gpcrMAX PathHunter beta-arrestin
Sequence of OPRK1 (P41145 whole entry): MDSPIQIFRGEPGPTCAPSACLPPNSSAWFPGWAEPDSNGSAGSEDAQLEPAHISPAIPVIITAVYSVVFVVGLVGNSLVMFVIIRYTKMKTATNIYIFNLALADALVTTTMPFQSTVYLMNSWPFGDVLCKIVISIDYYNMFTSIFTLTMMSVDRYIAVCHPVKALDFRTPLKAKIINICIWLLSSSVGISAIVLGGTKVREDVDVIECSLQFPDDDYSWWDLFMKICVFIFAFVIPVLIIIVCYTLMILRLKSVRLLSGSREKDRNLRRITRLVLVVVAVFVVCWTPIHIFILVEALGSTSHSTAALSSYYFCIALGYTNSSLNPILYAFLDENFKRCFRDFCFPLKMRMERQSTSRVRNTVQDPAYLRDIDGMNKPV
LE:CCRF-CEM = tested on: LE:CCRF-CEM; set-up: method as in earlier work; conditions: NCI-60 panel; ref [4],[5],[6],[7]; cited from earlier work
GPR119 = GPR119 (Homo sapiens, UniProt Q8TDV5); test: gpcrMAX PathHunter beta-arrestin
C5AR1 = C5AR1 (Homo sapiens, UniProt P21730); test: gpcrMAX PathHunter beta-arrestin
P2RY12 = P2RY12 (Homo sapiens, UniProt Q9H244); test: gpcrMAX PathHunter beta-arrestin
Sequence of P2RY12 (Q9H244 whole entry, one chain of several): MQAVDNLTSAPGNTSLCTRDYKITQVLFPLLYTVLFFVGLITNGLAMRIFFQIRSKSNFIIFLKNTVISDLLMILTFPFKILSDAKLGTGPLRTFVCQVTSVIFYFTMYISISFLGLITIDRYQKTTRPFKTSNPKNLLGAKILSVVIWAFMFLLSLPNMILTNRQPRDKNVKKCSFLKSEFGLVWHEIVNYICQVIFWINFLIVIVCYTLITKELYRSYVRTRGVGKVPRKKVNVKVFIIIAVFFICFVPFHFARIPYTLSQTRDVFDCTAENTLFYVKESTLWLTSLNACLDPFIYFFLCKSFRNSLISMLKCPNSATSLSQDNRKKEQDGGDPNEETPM
RE:786-0 = tested on: RE:786-0; set-up: method as in earlier work; conditions: NCI-60 panel; ref [4],[5],[6],[7]; cited from earlier work
BR:BT-549 = tested on: BR:BT-549; set-up: method as in earlier work; conditions: NCI-60 panel; ref [4],[5],[6],[7]; cited from earlier work
HTR1E = HTR1E (Homo sapiens, UniProt P28566); test: gpcrMAX PathHunter beta-arrestin
ME:MDA-MB-435 = tested on: ME:MDA-MB-435; set-up: method as in earlier work; conditions: NCI-60 panel; ref [4],[5],[6],[7]; cited from earlier work
OPRM1 = OPRM1 (Homo sapiens, UniProt P35372); test: gpcrMAX PathHunter beta-arrestin
Sequence of OPRM1 (P35372 whole entry): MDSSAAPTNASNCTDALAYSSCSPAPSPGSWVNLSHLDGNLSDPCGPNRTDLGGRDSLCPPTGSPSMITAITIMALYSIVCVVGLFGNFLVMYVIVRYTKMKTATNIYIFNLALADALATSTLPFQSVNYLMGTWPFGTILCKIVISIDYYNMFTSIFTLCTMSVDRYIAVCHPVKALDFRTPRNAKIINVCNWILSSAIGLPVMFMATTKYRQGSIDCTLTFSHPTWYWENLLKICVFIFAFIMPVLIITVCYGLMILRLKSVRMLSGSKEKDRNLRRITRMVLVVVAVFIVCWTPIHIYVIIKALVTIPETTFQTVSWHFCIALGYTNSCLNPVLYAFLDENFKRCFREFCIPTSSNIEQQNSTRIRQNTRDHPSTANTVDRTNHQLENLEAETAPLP

CRHR1 = CRHR1 (Homo sapiens, UniProt P34998); test: gpcrMAX PathHunter beta-arrestin
EDG6 = EDG6 (Homo sapiens, UniProt O95977); test: gpcrMAX PathHunter beta-arrestin
C3AR1 = C3AR1 (Homo sapiens, UniProt Q16581); test: gpcrMAX PathHunter beta-arrestin
Sequence of C3AR1 (Q16581 whole entry): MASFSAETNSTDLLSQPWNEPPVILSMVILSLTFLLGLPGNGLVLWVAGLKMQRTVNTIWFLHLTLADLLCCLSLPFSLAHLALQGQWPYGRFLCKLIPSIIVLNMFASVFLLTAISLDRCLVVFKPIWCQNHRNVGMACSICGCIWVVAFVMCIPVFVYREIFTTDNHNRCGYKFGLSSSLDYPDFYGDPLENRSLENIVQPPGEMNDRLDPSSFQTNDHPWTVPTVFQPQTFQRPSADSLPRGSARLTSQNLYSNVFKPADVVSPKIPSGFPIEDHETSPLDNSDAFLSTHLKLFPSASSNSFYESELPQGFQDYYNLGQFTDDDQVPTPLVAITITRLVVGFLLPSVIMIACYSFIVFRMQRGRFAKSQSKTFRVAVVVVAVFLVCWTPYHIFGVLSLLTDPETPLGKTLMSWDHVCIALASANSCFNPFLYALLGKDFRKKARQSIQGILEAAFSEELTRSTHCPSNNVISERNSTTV

VIPR2 = VIPR2 (Homo sapiens, UniProt P41587); test: gpcrMAX PathHunter beta-arrestin
Sequence of VIPR2 (P41587 24-438): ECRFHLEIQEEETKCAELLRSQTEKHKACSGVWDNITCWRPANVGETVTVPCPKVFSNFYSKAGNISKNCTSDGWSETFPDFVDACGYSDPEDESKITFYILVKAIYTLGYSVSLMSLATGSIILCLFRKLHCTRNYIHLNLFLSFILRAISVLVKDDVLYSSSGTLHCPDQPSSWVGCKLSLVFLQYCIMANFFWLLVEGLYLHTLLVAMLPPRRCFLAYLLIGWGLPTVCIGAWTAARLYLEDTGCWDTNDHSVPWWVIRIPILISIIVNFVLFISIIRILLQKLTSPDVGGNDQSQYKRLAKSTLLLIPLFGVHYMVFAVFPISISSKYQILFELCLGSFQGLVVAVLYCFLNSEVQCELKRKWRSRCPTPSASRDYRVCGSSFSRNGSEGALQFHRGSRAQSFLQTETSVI

PTHR1 = PTHR1 (Homo sapiens, UniProt Q03431); test: gpcrMAX PathHunter beta-arrestin
NPFFR1 = NPFFR1 (Homo sapiens, UniProt Q9GZQ6); test: gpcrMAX PathHunter beta-arrestin
CRHR2 = CRHR2 (Homo sapiens, UniProt Q13324); test: gpcrMAX PathHunter beta-arrestin
AVPR1A = AVPR1A (Homo sapiens, UniProt P37288); test: gpcrMAX PathHunter beta-arrestin
Sequence of AVPR1A (P37288 whole entry): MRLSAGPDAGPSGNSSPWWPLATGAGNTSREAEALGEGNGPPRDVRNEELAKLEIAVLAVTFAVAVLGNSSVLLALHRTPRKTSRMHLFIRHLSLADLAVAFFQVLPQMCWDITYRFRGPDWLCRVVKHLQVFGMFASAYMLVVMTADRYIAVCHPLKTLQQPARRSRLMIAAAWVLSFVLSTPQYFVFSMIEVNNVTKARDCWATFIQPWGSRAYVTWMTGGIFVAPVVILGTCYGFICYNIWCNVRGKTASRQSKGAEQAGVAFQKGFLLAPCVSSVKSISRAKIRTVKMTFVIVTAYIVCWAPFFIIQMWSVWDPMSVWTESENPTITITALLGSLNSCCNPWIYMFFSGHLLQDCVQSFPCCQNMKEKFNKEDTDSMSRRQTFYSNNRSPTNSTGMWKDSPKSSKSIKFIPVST

CCR8 = CCR8 (Homo sapiens, UniProt P51685); test: gpcrMAX PathHunter beta-arrestin
BR:MDA-MB-231 = tested on: BR:MDA-MB-231; set-up: method as in earlier work; conditions: NCI-60 panel; ref [4],[5],[6],[7]; cited from earlier work
CHRM3 = CHRM3 (Homo sapiens, UniProt P20309); test: gpcrMAX PathHunter beta-arrestin
NPBWR1 = NPBWR1 (Homo sapiens, UniProt P48145); test: gpcrMAX PathHunter beta-arrestin
LC:NCI-H460 = tested on: LC:NCI-H460; set-up: method as in earlier work; conditions: NCI-60 panel; ref [4],[5],[6],[7]; cited from earlier work
CCR2 = CCR2 (Homo sapiens, UniProt P41597); test: gpcrMAX PathHunter beta-arrestin
Sequence of CCR2 (P41597 whole entry): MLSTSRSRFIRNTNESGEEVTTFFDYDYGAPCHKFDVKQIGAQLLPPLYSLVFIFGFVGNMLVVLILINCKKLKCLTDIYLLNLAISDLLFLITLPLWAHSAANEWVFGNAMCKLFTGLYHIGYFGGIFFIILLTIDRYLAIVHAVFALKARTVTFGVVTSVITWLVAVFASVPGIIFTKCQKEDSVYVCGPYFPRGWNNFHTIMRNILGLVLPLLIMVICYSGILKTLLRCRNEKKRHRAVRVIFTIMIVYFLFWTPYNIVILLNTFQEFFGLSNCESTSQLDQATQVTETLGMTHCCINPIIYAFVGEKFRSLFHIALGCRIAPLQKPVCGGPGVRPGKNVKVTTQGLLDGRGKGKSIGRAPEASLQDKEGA
LC:NCI-H322M = tested on: LC:NCI-H322M; set-up: method as in earlier work; conditions: NCI-60 panel; ref [4],[5],[6],[7]; cited from earlier work
CALCRL-RAMP1 = CALCRL-RAMP1 (Homo sapiens, UniProt O60894+Q16602); test: gpcrMAX PathHunter beta-arrestin
EDG3 = EDG3 (Homo sapiens, UniProt Q99500); test: gpcrMAX PathHunter beta-arrestin
Sequence of EDG3 (Q99500 whole entry): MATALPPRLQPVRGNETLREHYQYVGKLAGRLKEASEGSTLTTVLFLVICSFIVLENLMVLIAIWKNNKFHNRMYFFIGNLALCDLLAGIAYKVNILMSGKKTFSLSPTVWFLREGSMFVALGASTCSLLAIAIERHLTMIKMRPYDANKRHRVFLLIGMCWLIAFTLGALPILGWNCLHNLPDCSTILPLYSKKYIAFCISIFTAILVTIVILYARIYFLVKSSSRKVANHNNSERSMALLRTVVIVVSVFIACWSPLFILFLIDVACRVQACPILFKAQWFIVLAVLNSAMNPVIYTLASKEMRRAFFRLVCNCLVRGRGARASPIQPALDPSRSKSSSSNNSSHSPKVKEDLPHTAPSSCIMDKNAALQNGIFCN
RE:UO-31 = tested on: RE:UO-31; set-up: method as in earlier work; conditions: NCI-60 panel; ref [4],[5],[6],[7]; cited from earlier work

Cc1c(Cl)cccc1NC(=O)c1sc2nc3c(cc2c1N)C(=O)CCC3 [Compound 1]
GI50 (BR:MCF7): 0.0464 µM | GI50 (OV:OVCAR-5): 0.307 µM | GI50 (PR:DU-145): 0.152 µM | inhibition at 10 µM (TACR1): -3% | inhibition at 10 µM (UTR2): 10% | inhibition at 10 µM (CXCR7): -15% | GI50 (RE:A498): 0.0232 µM | inhibition at 10 µM (TBXA2R): -1% | inhibition at 10 µM (ADCYAP1R1): 23% | GI50 (CO:SW-620): 0.0486 µM | inhibition at 10 µM (AGTRL1): 5% | inhibition at 10 µM (GRPR): 11% | inhibition at 10 µM (GLP2R): 16% | inhibition at 10 µM (OPRK1): -162% | GI50 (LE:CCRF-CEM): 0.141 µM | inhibition at 10 µM (GPR119): 23% | inhibition at 10 µM (C5AR1): 2% | inhibition at 10 µM (P2RY12): -25% | % Inhibition (P2RY12; antagonist mode, 10 µM): no antagonist modulation was observed | GI50 (RE:786-0): 0.103 µM | GI50 (BR:BT-549): 0.321 µM | inhibition at 10 µM (HTR1E): 19% | GI50 (ME:MDA-MB-435): 0.0187 µM | inhibition at 10 µM (OPRM1): -18% | inhibition at 10 µM (CRHR1): 20% | inhibition at 10 µM (EDG6): -6% | inhibition at 10 µM (C3AR1): -3% | inhibition at 10 µM (VIPR2): 12% | inhibition at 10 µM (PTHR1): 12% | inhibition at 10 µM (NPFFR1): -55% | inhibition at 10 µM (CRHR2): 8% | inhibition at 10 µM (AVPR1A): -12% | inhibition at 10 µM (CCR8): -7% | GI50 (BR:MDA-MB-231): 0.141 µM | inhibition at 10 µM (CHRM3): 14% | inhibition at 10 µM (NPBWR1): -14% | GI50 (LC:NCI-H460): 0.0408 µM | inhibition at 10 µM (CCR2): -8% | GI50 (LC:NCI-H322M): 0.306 µM | inhibition at 10 µM (CALCRL-RAMP1): 6% | inhibition at 10 µM (EDG3): -2% | GI50 (RE:UO-31): 0.0731 µM
